Where a SMILES comes first, the peptide text is derived from it.
What was measured:
[1] = reported in U.S. Patent No. 4,411,925; cited from earlier work
[2] = disclosed by Zeng et al.; cited from earlier work
[3] = Sweetness potency: four tasters compare dilutions of the test compound with a 200 ppm aspartame solution; type: in vivo; settings: against 200 ppm aspartame solution, aspartame taken as 180 times sucrose
Procedure: The sweetness potency was determined by having four tasters compare the sweetness of various dilutions of the test compound with a 200 ppm equivalent solution of aspartame, wherein the sweetness of aspartame was taken to be 180 times sucrose. […]

[4] = value adopted for the reference solution; cited from earlier work

SMILES	Sweetness [3]	further results
C[C@@H](NC(=O)[C@@H](N)CC(=O)O)C(=O)NC(C1CC1)C(C)(C)C (mixture of isomers) [L-aspartyl-D-alanine amide of (+/-) t-butyl-cyclopropyl methylamine]		sweetness potency (SP) [1]: 1200 times sucrose
Cc1cccc(C)c1NC(=O)[C@@H](C)NC(=O)[C@@H](N)CC(=O)O [2,6-dimethyl-aniline amide]		sweetness potency [2]: 500 times the sweetness of sucrose
C[C@H](NC(=O)[C@@H](C)NC(=O)[C@@H](N)CC(=O)O)c1ccccc1 [Example 2, L-aspartyl-D-alanine-N-(S)-α-methyl-benzylamide]	180 times sucrose	
CC[C@@H](NC(=O)[C@@H](N)CC(=O)O)C(=O)N[C@@H](C)c1ccccc1 [Example 3, L-aspartyl-D-α-aminobutyric-acid N-(S)-α-methylbenzyl amide]	360 times sucrose	
CCC[C@@H](NC(=O)[C@@H](N)CC(=O)O)C(=O)N[C@@H](C)c1ccccc1 [Example 4, L-aspartyl-D-α-aminopentanoic-acid-N-(S)-α-methylbenzyl amide]	90 times sucrose	
CC(C)[C@@H](NC(=O)[C@@H](N)CC(=O)O)C(=O)N[C@@H](C)c1ccccc1 [Example 5, L-aspartyl-D-valine-N-(S)-α-methylbenzyl amide]	540 times sucrose	
C[C@H](NC(=O)[C@H](NC(=O)[C@@H](N)CC(=O)O)c1ccccc1)c1ccccc1 [Example 6, L-aspartyl-D-phenylglycine-N-(S)-α-methylbenzyl amide]	270 times sucrose	
C[C@@H](NC(=O)[C@@H](N)CC(=O)O)C(=O)N[C@H](C)c1ccccc1 [Example 7, L-aspartyl-D-alanine-N-(R)-α-methylbenzyl amide]	less than 10 times sucrose	
CCC(NC(=O)[C@@H](C)NC(=O)[C@@H](N)CC(=O)O)c1ccccc1 (stereo partly drawn) [Example 8, L-aspartyl-D-alanine-N-(R,S)-α-ethylbenzyl amide]	270 times sucrose	
CC(C)C(NC(=O)[C@@H](C)NC(=O)[C@@H](N)CC(=O)O)c1ccccc1 (stereo partly drawn) [Example 9, L-aspartyl-D-alanine-N-(R,S)-α-isopropylbenzyl amide]	180 times sucrose	
C[C@@H](NC(=O)[C@@H](N)CC(=O)O)C(=O)NC(c1ccccc1)C(C)(C)C (stereo partly drawn) [Example 10, L-aspartyl-D-alanine-N-(R,S)-α-t-butylbenzyl amide]	150 times sucrose	
CCCC(NC(=O)[C@@H](C)NC(=O)[C@@H](N)CC(=O)O)c1ccccc1 (stereo partly drawn) [Example 11, L-aspartyl-D-alanine-N-(R,S)-α-n-propylbenzyl amide]	90 times sucrose	
C[C@@H](NC(=O)[C@@H](N)CC(=O)O)C(=O)NC(c1ccccc1)c1ccccc1 [Example 12, L-aspartyl-D-alanine-N-α-phenyl benzyl amide]	180 times sucrose	
C[C@@H](NC(=O)[C@@H](N)CC(=O)O)C(=O)NC(c1ccccc1)C1CC1 (stereo partly drawn) [Example 13, L-aspartyl-D-alanine-N-α-cyclopropyl benzyl amide]	1,080 times sucrose	
CC[C@H](NC(=O)[C@@H](CC)NC(=O)[C@@H](N)CC(=O)O)c1ccccc1 [Example 14, L-aspartyl-D-α-aminobutyric acid-N-(S)-α-ethylbenzyl amide]	2500 x Sucrose	Sweetness ([3]; listed as L-aspartyl-D-α-aminobutyric-acid-(S)-N-α-alkylbenzyl amide): 2500 times sucrose
CC[C@H](NC(=O)[C@H](NC(=O)[C@@H](N)CC(=O)O)C(C)C)c1ccccc1 [Example 15, L-aspartyl-D-valine-N-(S)-α-ethylbenzyl amide]	1500 times sucrose	
CC[C@@H](NC(=O)[C@@H](N)CC(=O)O)C(=O)NC(C1CC1)C1CC1 [R = ethyl]		sweetness potency (SP) [1]: 500 times sucrose
CC(C)[C@@H](NC(=O)[C@@H](N)CC(=O)O)C(=O)NC(C1CC1)C1CC1 [R = isopropyl]		sweetness potency (SP) [1]: 110 times sucrose
C[C@@H](NC(=O)[C@@H](N)CC(=O)O)C(=O)NC(C1CC1)C1CC1 [R = methyl]		sweetness potency (SP) [1]: 1200 times sucrose
COC(=O)[C@H](Cc1ccccc1)NC(=O)[C@@H](N)CC(=O)O [aspartame] (H-Asp-Phe-OMe)		sweetness of aspartame (adopted reference value) [4]: 180 times sucrose
